# Columns and labels:
# human TNFR-p55 = assay: Solid phase radioligand competition binding assay, E. coli lysates, TNFR-p55; details: for Dilution of E. coli Lysate for 50% Inhibition of 125I-TNFα Binding (ID50) TNFR-p55: 10-fold serial dilutions 10^-2 to 10^-7, < = inhibition but below 50% at 1:100, << = no measurable inhibition at 1:100; for ID50 TNFR-p55 / ID50 TNFR-p75: ratio = 1 no receptor selectivity, > 1 TNFR-p55 selectivity, < 1 TNFR-p75 selectivity
# Protocol: (§1) After 20 min incubation at room temperature 50 μl of 1M MgCl2, 20 μl of 5 mg/ml DNaseI, 50 μl of 5M NaCl and 50 μl of 10% NP-40 were added and the mixture was further incubated at room temperature for 15 min. 0.5 ml of the lysate clarified by centrifugation at 13'000 rpm for 5 min was subjected to ammonium sulfate precipitation (25%-70% cut). The 70% ammonium sulfat pellet was dissolved in 0.2 ml PBS and analyzed by sodium dodecyl sulfate polyacrylamide gel electrophoresis (SDS-PAGE) to confirm presence and approximate amount of the recombinant proteins.
# TNFα was labelled by the Iodogen method (Pierce Chemical Company) to a specific activity of about 10-30 μCi/μg. The volume was 100 μl/well and each lysate dilution was assayed in duplicate or triplicate. After three hours at room temperature the wells were thoroughly washed with PBS and counted in a γ-counter. The results are given in Table 2 for lysates comprising the muteins indicated therein.
# human TNFR-p75 = assay: Solid phase radioligand competition binding assay, E. coli lysates, TNFR-p75; details: 10-fold serial dilutions 10^-2 to 10^-7, < = inhibition but below 50% at 1:100, << = no measurable inhibition at 1:100
# Protocol: as §1, with “10 ml suspensions of E. coli cells transformed and induced as described in Examples I and II were centrifuged at 4'000 rpm for 10 min and resuspended in 0.9 ml of lysis buffer (10 mM Tris-HCl pH 8.0, 5 mM EDTA, 2 mM PMSF, 10 mM benzamidine, 200 units/ml aprotinine and 0.1 mg/ml lysozyme). After” for “After”
# 96 well microtiter plates were coated with recombinant human […] TNFR-p75-hγ3 and TNFR-p55-hγ3 fusion proteins (extracellular portion of the receptor fused to the Fc part of human IgG3) at a concentration of 0.3 μg/ml and 0.1 μg/ml, respectively, in phosphate buffered saline (PBS, 100 μl/well, overnight at 4° C.) [Loetscher, H. et al. J. Biol. Chem. 266, 18324-18329 (1991); Lesslauer, W. et al. Eur. J. Immunol. 21, 2883-2886 (1991)]. After blocking with blocking buffer (50 mM Tris pH 7.4, 140 mM NaCl, 5 mM EDTA, 0.02% NAN3, 1% defatted milk powder) the microtiter plate was washed with PBS and incubated in blocking buffer containing 0.1% defatted milk powder with 10 ng/ml human wild-type ^125 I-TNFα and various dilutions of E. coli lysates ranging from 10^-2 to 10^-7 (10-fold serial dilutions). TNFα was labelled by the Iodogen method (Pierce Chemical Company) to a specific activity of about 10-30 μCi/μg. The volume was 100 μl/well and each lysate dilution was assayed in duplicate or triplicate. After three hours at room temperature the wells were thoroughly washed with PBS and counted in a γ-counter. The results are given in Table 2 for lysates comprising the muteins indicated therein.
Substance,Dilution of E. coli Lysate for 50% Inhibition of 125I-TNFα Binding (ID50) TNFR-p55 (human TNFR-p55),ID50 TNFR-p55 / ID50 TNFR-p75 (human TNFR-p55),Dilution of E. coli Lysate for 50% Inhibition of 125I-TNFα Binding (ID50) TNFR-p75 (human TNFR-p75)
N34R: human TNFα mutein N34R,< 100 fold,> 1,< 100 fold
Y87L: human TNFα mutein Y87L,< 100 fold,1,< 100 fold
Y87G: human TNFα mutein Y87G,< 100 fold,1,< 100 fold
E146R: human TNFα mutein E146R,"6,670 fold",> 67,< 100 fold
A33D: human TNFα mutein A33D,< 100 fold,> 1,< 100 fold
N34H: human TNFα mutein N34H,670 fold,> 6.7,< 100 fold
A145T: human TNFα mutein A145T,"5,000 fold",0.7,"6,670 fold"
F144R: human TNFα mutein F144R,"2,500 fold",7.6,330 fold
Y87F: human TNFα mutein Y87F,200 fold,> 2,< 100 fold
S147N: human TNFα mutein S147N,"10,000 fold",1,"10,000 fold"
Q67Y: human TNFα mutein Q67Y,"20,000 fold",0.6,"33,330 fold"
L75W: human TNFα mutein L75W,220 fold,0.7,330 fold
H73Q: human TNFα mutein H73Q,"10,000 fold",1,"10,000 fold"
N34D: human TNFα mutein N34D,250 fold,> 2.5,< 100 fold
Q67K: human TNFα mutein Q67K,"25,000 fold",0.5,"50,000 fold"
R31N-R32T: human TNFα mutein R31N-R32T,"3,260 fold",> 32.6,< 100 fold

Substance,Dilution of E. coli Lysate for 50% Inhibition of 125I-TNFα Binding (ID50) TNFR-p55 (human TNFR-p55),ID50 TNFR-p55 / ID50 TNFR-p75 (human TNFR-p55),Dilution of E. coli Lysate for 50% Inhibition of 125I-TNFα Binding (ID50) TNFR-p75 (human TNFR-p75)
S99Y: human TNFα mutein S99Y,< 100 fold,1,< 100 fold
K65W: human TNFα mutein K65W,500 fold,0.2,"3,330 fold"
Y87T: human TNFα mutein Y87T,< 100 fold,1,< 100 fold
K65A: human TNFα mutein K65A,"20,000 fold",0.6,"33,330 fold"
L75R: human TNFα mutein L75R,< 100 fold,1,< 100 fold
I97Y: human TNFα mutein I97Y,"2,500 fold",7.6,330 fold
A33T: human TNFα mutein A33T,"1,110 fold",0.9,"1,250 fold"
F144W: human TNFα mutein F144W,400 fold,2.2,180 fold
N34G: human TNFα mutein N34G,330 fold,> 3.3,< 100 fold
S99A: human TNFα mutein S99A,"6,670 fold",1,"6,670 fold"
A145D: human TNFα mutein A145D,"5,000 fold",0.7,"6,670 fold"
R32W-S86T: human TNFα mutein R32W-S86T,"3,330 fold",> 33.3,< 100 fold
Q21S: human TNFα mutein Q21S,"2,500 fold",1,"2,500 fold"
A145G: human TNFα mutein A145G,"2,500 fold",0.4,"6,670 fold"
A145K: human TNFα mutein A145K,< 100 fold,< 0.05,"1,820 fold"
